{
  "source": "patent US11370775B2",
  "about": "“Substituted benzimidazole derivatives as D-amino acid oxidase (DAAO) inhibitors” (NATIONAL TAIWAN UNIVERSITY, priority 2016, dated 2022)",
  "tested_on": "MK-801-induced PPI deficit in C57BL/6 mice",
  "assay": "Prepulse inhibition, MK-801-induced PPI deficit",
  "assay_type": "in vivo",
  "settings": "MK-801 0.2 mg/kg i.p.",
  "description": "The NMDA-receptor antagonist MK-801-induced negative or cognitive deficits in C57BL/6 mice were in a well-established drug-induced schizophrenia mouse model and as a useful pharmacological animal model to identify if the RS-D7, its analog and its prodrug improve the symptoms through the NMDA receptor.\nAll wild-type (WT) mice used in this study were backcrossed onto a C57BL/6J background from the Laboratory Animal Center of National Taiwan University Hospital, and all behavioral examinations were conducted in WT mice. For acclimatizing to laboratory conditions, the mice were allowed free access to food and water and were housed in groups with a 12 hours light-dark cycle in a temperature and humidity controlled room of the Psychology Department, National Taiwan University. All animals within the age of 3 months were housed individually one week before experiment testing with food and water available ad libitum. In the beginning of the experiments, the mice were handled and weighted daily at least 1 week before the behavioral experiments. The entire animal procedures were performed according to protocols approved by the Animal Care and Use Committee established by the National Taiwan University.\nMK-801 was dissolved in saline and administered at a volume of 0.01 ml/g body weight. RS-D7, Drug 12083 (analog of RS-D7) and was freshly dissolved in 1% CMC to the concentration of 2 mg/ml before usage. Prodrug 28095 was freshly dissolved in NMP:HP-beta-CD:H2O (5:25:70) to the concentration of 2 mg/ml before usage. All animals were given vehicle (saline) or MK-801 (0.2 mg/kg, i.p.) 25 minutes before the behavioral experiments. Both vehicle (1% CMC or NMP:HP-beta-CD:H2O) and experimental groups (RS-D7, Drug 12083 or Prodrug 28095) were treated after 5 minutes MK-801 administration with the appropriate dose via P.O. injections (at a volume of 0.01 ml/g body weight).\nFor investigating the treatment effect of RS-D7 for negative and cognitive symptoms, a series of three behavioral tests (run from the first to the third week), which included open field, sucrose preference test and prepulse inhibition were performed in sequence with a 1-week interval between tests.\nTo assess the sensorimotor gating function, each mouse was tested with the SR-LAB startle apparatus (San Diego Instruments, San Diego, Calif., USA). The background noise was 72 dB during testing. Each session was initiated with a 5 minutes acclimatization period followed by 64 trials, consisting of pulse-alone (P-alone) trials, prepulse pulse (pp+P) trials, and no stimulation (nostim) trials. A P-alone trial was a 120 dB white noise burst of 40 msec. In the pp+P trials, the 120 dB pulse was preceded (by 100 msec) by a 20 msec of white noise prepulse burst of 78 dB (PP6), 82 dB (PP10), or 90 dB (PP18). The nostim trials consisted of background noise only. The session began and ended with a block of six presentations of the P-alone trial. Between these two blocks, the rest of the 52 trials were performed pseudorandomly and separated by intertrial intervals of 15 sec on average (varying between 10 and 20 sec). PPI was calculated as a percentage of the startle response using the formula: % PPI=100× [(P-alone score)-(pp+P score)]/(pulse-alone score), where the pulse-alone score was the average of the pulse-alone values from the in-between block of 52 trials.",
  "data": [
    {"smiles": "COc1c(C)cnc(CSc2nc3cc(C(=O)O)ccc3n2CCC2=CCCCC2)c1C", "note": "[compound 12083, 1-(2-(cyclohex-1-en-1-yl)ethyl)-2-(((4-methoxy-3,5-dimethylpyridin-2-yl)methyl)thio)-1H-benzo[d]imidazole-5-carboxylic acid]", "values": [
      {"measurement": "Effect on MK-801 induced PPI deficit", "setting": "20 mg/kg P.O.", "result": "significantly alleviated MK-801 induced PPI deficit"},
      {"measurement": "Effect on MK-801 induced PPI deficit", "setting": "40 mg/kg P.O.", "result": "significantly alleviated MK-801 induced PPI deficit"}
    ]},
    {"smiles": "COc1c(C)cnc(C[S+]([O-])c2nc3ccc(O)cc3[nH]2)c1C", "note": "(centres unmarked) [RS-D7, reference compound]", "values": [
      {"measurement": "Effect on MK-801 induced PPI deficit", "setting": "100 mg/kg P.O.", "result": "significantly alleviated MK-801 induced PPI deficit"},
      {"measurement": "Effect on MK-801 induced PPI deficit", "setting": "200 mg/kg P.O.", "result": "significantly alleviated MK-801 induced PPI deficit"},
      {"measurement": "Effect on MK-801 induced PPI deficit", "setting": "400 mg/kg P.O.", "result": "significantly alleviated MK-801 induced PPI deficit"}
    ]}
  ]
}
